Reference: patent US20250231185A1, “Coronavirus T Cell Epitopes, Megapools and Uses Thereof” (La Jolla Institute for Immunology, priority 2021, published 2025)
Where two headings read alike, the source gives them in different places.

Legend:
[1] = test system: CD8+ T cells; settings: cited from earlier work
[2] = test system: CD8+ T cells; test: Meta-analysis of published SARS-CoV-2 CD8 T cell epitope data curated in the IEDB (25 studies); format: cell-based, human; settings: dominant = recognized by 3 or more donors/different studies
[3] = SARS-CoV-2 Ag S, T cell type recognizing the epitope
[4] = T cell type (CD4 or CD8) recognizing the SARS-CoV-2 epitope
[5] = SARS-CoV-2-derived CD8 epitopes

Substance	Restriction [1, 3]	Dominant ([2]; SARS-CoV-2 Ag S, CD8 epitopes)	Restriction [1, 4]	Dominant [2, 5]
1461 (QYIKWPWYI) [compound 1461]	CD8	Yes (more dominant epitopes are defined by being recognized by 3 or more donors/different studies)	–	–
1466 (SEPVLKGVKL) [compound 1466]	CD8	Yes (more dominant epitopes are defined by being recognized by 3 or more donors/different studies)	–	–
1428 (APHGVVFLHV) [compound 1428]	CD8	Yes (more dominant epitopes are defined by being recognized by 3 or more donors/different studies)	–	–
1431 (VVFLHVTYV) [compound 1431]	CD8	Yes (more dominant epitopes are defined by being recognized by 3 or more donors/different studies)	–	–
939 (LLMPILTLT) [compound 939]	–	–	CD8	Yes (more dominant epitopes are defined by being recognized by 3 or more donors/different studies)
951 (FVDGVPFVV) [compound 951]	–	–	CD8	Yes (more dominant epitopes are defined by being recognized by 3 or more donors/different studies)
1453 (NLNESLIDL) [compound 1453]	CD8	Yes (more dominant epitopes are defined by being recognized by 3 or more donors/different studies)	–	–
1367 (LLQYGSFCT) [compound 1367]	CD8	Yes (more dominant epitopes are defined by being recognized by 3 or more donors/different studies)	–	–
992 (DTDFVNEFY) [compound 992]	–	–	CD8	Yes (more dominant epitopes are defined by being recognized by 3 or more donors/different studies)
931 (TMADLVYAL) [compound 931]	–	–	CD8	Yes (more dominant epitopes are defined by being recognized by 3 or more donors/different studies)
1350 (SVASQSIIAY) [compound 1350]	CD8	Yes (more dominant epitopes are defined by being recognized by 3 or more donors/different studies)	–	–
1324 (GPKKSTNLV) [compound 1324]	CD8	Yes (more dominant epitopes are defined by being recognized by 3 or more donors/different studies)	–	–
1029 (KLNVGDYFV) [compound 1029]	–	–	CD8	Yes (more dominant epitopes are defined by being recognized by 3 or more donors/different studies)
1087 (KMQRMLLEK) [compound 1087]	–	–	CD8	Yes (more dominant epitopes are defined by being recognized by 3 or more donors/different studies)
901 (NTCDGTTFTY) [compound 901]	–	–	CD8	Yes (more dominant epitopes are defined by being recognized by 3 or more donors/different studies)
1072 (KVDGVDVEL) [compound 1072]	–	–	CD8	Yes (more dominant epitopes are defined by being recognized by 3 or more donors/different studies)
964 (RQLLFVVEV) [compound 964]	–	–	CD8	Yes (more dominant epitopes are defined by being recognized by 3 or more donors/different studies)
1061 (SYATHSDKF) [compound 1061]	–	–	CD8	Yes (more dominant epitopes are defined by being recognized by 3 or more donors/different studies)
1053 (TYACWHHSI) [compound 1053]	–	–	CD8	Yes (more dominant epitopes are defined by being recognized by 3 or more donors/different studies)
1026 (VVYRGTTTY) [compound 1026]	–	–	CD8	Yes (more dominant epitopes are defined by being recognized by 3 or more donors/different studies)
1067 (KQFDTYNLW) [compound 1067]	–	–	CD8	Yes (more dominant epitopes are defined by being recognized by 3 or more donors/different studies)
1347 (SPRRARSVA) [compound 1347]	CD8	Yes (more dominant epitopes are defined by being recognized by 3 or more donors/different studies)	–	–
1019 (VLQAVGACV) [compound 1019]	–	–	CD8	Yes (more dominant epitopes are defined by being recognized by 3 or more donors/different studies)
1065 (MMISAGFSL) [compound 1065]	–	–	CD8	Yes (more dominant epitopes are defined by being recognized by 3 or more donors/different studies)

Substance	Restriction [1, 3]	Dominant ([2]; SARS-CoV-2 Ag S, CD8 epitopes)	Restriction [1, 4]	Dominant [2, 5]
1027 (VYRGTTTYKL) [compound 1027]	–	–	CD8	Yes (more dominant epitopes are defined by being recognized by 3 or more donors/different studies)
1462 (KWPWYIWLGF) [compound 1462]	CD8	Yes (more dominant epitopes are defined by being recognized by 3 or more donors/different studies)	–	–
943 (KLFDRYFKY) [compound 943]	–	–	CD8	Yes (more dominant epitopes are defined by being recognized by 3 or more donors/different studies)
970 (RLYYDSMSY) [compound 970]	–	–	CD8	Yes (more dominant epitopes are defined by being recognized by 3 or more donors/different studies)
905 (ALWEIQQV) [compound 905]	–	–	CD8	Yes (more dominant epitopes are defined by being recognized by 3 or more donors/different studies)
989 (MVMCGGSLYV) [compound 989]	–	–	CD8	Yes (more dominant epitopes are defined by being recognized by 3 or more donors/different studies)
1421 (YHLMSFPQSA) [compound 1421]	CD8	Yes (more dominant epitopes are defined by being recognized by 3 or more donors/different studies)	–	–
1085 (GVAMPNLYK) [compound 1085]	–	–	CD8	Yes (more dominant epitopes are defined by being recognized by 3 or more donors/different studies)
1041 (VYIGDPAQL) [compound 1041]	–	–	CD8	Yes (more dominant epitopes are defined by being recognized by 3 or more donors/different studies)
1392 (LQIPFAMQMAY) [compound 1392]	CD8	Yes (more dominant epitopes are defined by being recognized by 3 or more donors/different studies)	–	–
1379 (LLFNKVTLA) [compound 1379]	CD8	Yes (more dominant epitopes are defined by being recognized by 3 or more donors/different studies)	–	–
1351 (VASQSIIAY) [compound 1351]	CD8	Yes (more dominant epitopes are defined by being recognized by 3 or more donors/different studies)	–	–
1401 (AQALNTLVKQL) [compound 1401]	CD8	Yes (more dominant epitopes are defined by being recognized by 3 or more donors/different studies)	–	–
1396 (TQNVLYENQK) [compound 1396]	CD8	Yes (more dominant epitopes are defined by being recognized by 3 or more donors/different studies)	–	–
966 (VVDKYFDCY) [compound 966]	–	–	CD8	Yes (more dominant epitopes are defined by being recognized by 3 or more donors/different studies)
1361 (FTISVTTEIL) [compound 1361]	CD8	Yes (more dominant epitopes are defined by being recognized by 3 or more donors/different studies)	–	–
1025 (VVYRGTTTYK) [compound 1025]	–	–	CD8	Yes (more dominant epitopes are defined by being recognized by 3 or more donors/different studies)
910 (CTDDNALAYY) [compound 910]	–	–	CD8	Yes (more dominant epitopes are defined by being recognized by 3 or more donors/different studies)
1082 (LLLDDFVEII) [compound 1082]	–	–	CD8	Yes (more dominant epitopes are defined by being recognized by 3 or more donors/different studies)
922 (DLKGKYVQI) [compound 922]	–	–	CD8	Yes (more dominant epitopes are defined by being recognized by 3 or more donors/different studies)
1405 (VLNDILSRL) [compound 1405]	CD8	Yes (more dominant epitopes are defined by being recognized by 3 or more donors/different studies)	–	–
1303 (NYNYLYRLF) [compound 1303]	CD8	Yes (more dominant epitopes are defined by being recognized by 3 or more donors/different studies)	–	–
903 (FTYASALWEI) [compound 903]	–	–	CD8	Yes (more dominant epitopes are defined by being recognized by 3 or more donors/different studies)
